In PMC11253624, “Unsaturated fatty acid perturbation combats emerging triazole antifungal resistance in the human fungal pathogen Aspergillus fumigatus” (mBio, 2024):
In brackets after ≈: the same amount, converted by molar mass. Read-outs that look alike come from different tables or passages of the source.

Columns and labels:
Caco-2 permeability = assay type: in vitro ADME; conditions: human
[1] = Liver microsome stability; assay type: in vitro ADME; conditions: mouse; murine liver microsomes, NADPH; read-out: MLMS (t1/2)
Procedure: To examine the potential for first-pass metabolism of analogs in the liver, the stability of analogs in the presence of liver microsome preparations (Eurofins Discovery for human, dog, and rat; Xenotech for mouse) was measured using the method of Kuhnz and […] ([52]). The amount of parent compound remaining after incubation with microsomes in the presence of NADPH over a 30-min time range was measured using a reverse-phase liquid chromatography/mass spectroscopy method that was customized for each compound. Half-lives were calculated using linear regression analysis of several time points.

Blastomyces dematitidis = assay: microbe, parasite or virus in culture; assay type: cell-based
Aspergillus fumigatus [2] = assay: CLSI-based microbroth dilution MIC, A. fumigatus strains
Cryptococcus neoformans [3] = assay: FIC checkerboard assay MBX-7591 and oleic acid, C. neoformans; assay type: cell-based; conditions: H99, MBX-7591 + 31.25 μg/ml OA
Procedure: Single-treatment controls were completed with 50 µL of media to substitute the volume of the other compound. […] Additional untreated and media-only controls were added to the plate as described above. Incubation of the plates and MIC assessments (individual and in combination) were performed as described above. FIC calculations were done according to the established formula: ∑FIC=MIC combination compound A/MIC individual compound A + MIC combination compound B/MIC individual compound B . Synergy was considered equal or lower than 0.5, and antagonism was considered to be higher than 2. FIC scores reported represent between three and five biological replicates. All antifungal susceptibility testing was done in 96-well plates using RPMI 1640 media buffered with 165 mM of MOPS and pH 7 using NaOH. CLSI-based microbroth dilution assays were done in accordance with M27 ([49]). […] Additionally, an untreated control (100 µL of a stock of 2 × 10^3 spores/mL and 100 µL of media) and a media-only control (200 µL media) were included in the plate. The plate was covered in a Breathe-Eazy membrane to allow for uniform oxygen diffusion throughout the plate and incubated for 24 hours at 35°C (Candida spp.) or 72 hours at 35°C ± 5% CO2 (Cryptococcus neoformans).

Aspergillus fumigatus [4] = assay: FIC checkerboard synergy assay, A. fumigatus; assay type: cell-based; conditions: for MIC: Aspergillus fumigatus
Fusarium spp. = assay: CLSI-based microbroth dilution MIC, spectrum of activity; assay type: cell-based; conditions: solani and oxysporum
Aspergillus fumigatus [5] = assay: Agar-based colony biofilm assay; assay type: cell-based; conditions: for inhibition at 0.58 µg/mL / inhibition at 1.16 µg/mL: Aspergillus fumigatus; for growth of parental wild-type strain in the presence of MBX-7591 (of untreated): concentration not given
Cryptococcus neoformans [6] = assay: CLSI-based microbroth dilution MIC for yeast; assay type: cell-based; conditions: for MIC: Cryptococcus neoformans
[7] = system: A. fumigatus CEA10 reference strain; assay: MIC of HTS hits vs A. fumigatus CEA10, CLSI microbroth dilution, with or without 32 µg/mL fluconazole; conditions: for MIC: Aspergillus fumigatus
Aspergillus terreus = assay: microbe, parasite or virus in culture; assay type: cell-based; conditions: strain AT1
Candida auris = assay: CLSI-based microbroth dilution MIC for yeast; assay type: cell-based; conditions: Candidozyma auris
Rhizopus delemar = assay: CLSI-based microbroth dilution MIC, spectrum of activity; assay type: cell-based; conditions: strain 99-880; for MIC: Rhizopus delemar
Coccidioides spp. = assay: microbe, parasite or virus in culture; assay type: cell-based
[8] = Aqueous solubility (nephelometric); assay type: physicochemical; conditions: kinetic from dmso stock
Procedure: The maximum aqueous solubility of each compound was determined using a nephelometric method as described ([51]). Each assay comprised three technical replicates, and each assay was repeated at least once. The reported solubility is the average of at least five technical replicates. […]

Apophysomyces spp. = assay: CLSI-based microbroth dilution MIC, spectrum of activity; assay type: cell-based
Aspergillus nidulans = assay: microbe, parasite or virus in culture; assay type: cell-based; conditions: strain FGSC A4
Aspergillus flavus = assay: CLSI-based microbroth dilution MIC, spectrum of activity; assay type: cell-based; conditions: for MIC: Aspergillus flavus

SMILES: O=C(c1ccsc1)N1CCC(Cc2ccc(COc3ccncc3)cc2)CC1 [MBX-7591]
- efflux ratio (Caco-2 permeability): 0.49
- Papp A→B (Caco-2 permeability; A→B, method b66 gives Papp in cm/s): 11 ×10⁻⁶ cm/s
- Papp B→A (Caco-2 permeability; B→A, method b66 gives Papp in cm/s): 5.6 ×10⁻⁶ cm/s
- half-life [1]: 40 min
- MIC (Blastomyces dematitidis; strain DI19-271): 0.5 µg/mL (≈ 1.27 µM)
- MIC (Blastomyces dematitidis; strain DI19-277): 8 µg/mL (≈ 20.4 µM)
- MIC (Blastomyces dematitidis; strain DI19-282): 4 µg/mL (≈ 10.2 µM)
- effect of CO2 levels on A. fumigatus susceptibility (Aspergillus fumigatus [2]): not impacted by CO2 levels
- MIC (Aspergillus fumigatus [2]; Aspergillus fumigatus, read-out: MIC (activity against various A. fumigatus strains)): ~2 µg/mL (≈ 5.1 µM)
- FIC value (Cryptococcus neoformans [3]): > 4
- average FIC (Aspergillus fumigatus [4]): 0.5
- MIC (Aspergillus fumigatus [4]; strain 08-19-02-61, alone): 2.45 µg/mL
- MIC (Aspergillus fumigatus [4]; strain 08-31-08-91, alone): 4.91 µg/mL
- MIC (Aspergillus fumigatus [4]; strain F11628, alone): 2.45 µg/mL
- MIC (Aspergillus fumigatus [4]; strain F15390 (caf8), alone): 2.45 µg/mL
- FIC value (Aspergillus fumigatus [4]; CEA10, MBX-7591 + 7.81 μg/ml OA): 4
- FIC value (Aspergillus fumigatus [4]; CEA10, MBX-7591 + 15.63 μg/ml OA): 8
- FIC value (Aspergillus fumigatus [4]; CEA10, MBX-7591 + 31.25 μg/ml OA): > 8
- FIC value (Aspergillus fumigatus [4]; strain 08-19-02-61, MBX-7591 + VCZ): 0.5
- FIC value (Aspergillus fumigatus [4]; strain 08-31-08-91, MBX-7591 + VCZ): 0.5
- FIC score (Aspergillus fumigatus [4]; strain CEA10, MBX-7591 + FLC): 0.312
- FIC value (Aspergillus fumigatus [4]; strain CEA10, MBX-7591 + VCZ): 0.375–0.5
- FIC value (Aspergillus fumigatus [4]; strain F11628, MBX-7591 + VCZ): 0.3125–0.375
- FIC value (Aspergillus fumigatus [4]; strain F15390 (caf8), MBX-7591 + VCZ): 0.5
- MIC (Fusarium spp.): > 39.2 µg/mL
- MIC (Fusarium spp.; read-out: MIC UTHSC): > 32 µg/mL
- inhibition at 0.58 µg/mL (Aspergillus fumigatus [5]; AFS35, 0.58 μg/mL, read-out: growth inhibition): ~61%
- inhibition at 1.16 µg/mL (Aspergillus fumigatus [5]; AFS35, 1.16 μg/mL, read-out: growth inhibition): ~70%
- inhibition at 0.58 µg/mL (Aspergillus fumigatus [5]; phspA:atrR, 0.58 μg/mL, read-out: growth inhibition): ~9%
- inhibition at 1.16 µg/mL (Aspergillus fumigatus [5]; phspA:atrR, 1.16 μg/mL, read-out: growth inhibition): ~19%
- inhibition at 1.16 µg/mL (Aspergillus fumigatus [5]; read-out: growth inhibition, hspA-atrR;ΔsrbA, 1.16 µg/mL): ~81%
- inhibition at 0.58 µg/mL (Aspergillus fumigatus [5]; read-out: growth inhibition, ΔatrR, 0.58 μg/mL): ~69%
- inhibition at 1.16 µg/mL (Aspergillus fumigatus [5]; read-out: growth inhibition, ΔatrR, 1.16 μg/mL): ~86%
- inhibition at 0.58 µg/mL (Aspergillus fumigatus [5]; read-out: growth inhibition, ΔsrbA, 0.58 μg/mL): ~62%
- inhibition at 1.16 µg/mL (Aspergillus fumigatus [5]; read-out: growth inhibition, ΔsrbA, 1.16 μg/mL): ~72%
- inhibition at 1.16 µg/mL (Aspergillus fumigatus [5]; read-out: growth inhibition, ΔsrbAΔatrR, 1.16 µg/mL): ~92%
- growth of parental wild-type strain in the presence of MBX-7591 (of untreated) (Aspergillus fumigatus [5]; first of two values): ~ 67%
- growth of parental wild-type strain in the presence of MBX-7591 (of untreated) (Aspergillus fumigatus [5]; second of two values): ~ 89%
- MIC (Cryptococcus neoformans [6]; strain H99, 0% CO2, read-out: MIC 0% CO2): > 39.2 µg/mL
- MIC (Cryptococcus neoformans [6]; strain H99, 5% CO2, Table S4, read-out: MIC 5% CO2): 2.45 µg/mL (≈ 6.24 µM)
- MIC (Cryptococcus neoformans [6]; strain H99, MIC obtained under 5% CO2, Table S3): 2.45 µg/mL (≈ 6.24 µM)
- MIC (Cryptococcus neoformans [6]; strain H99, read-out: MIC UTHSC): > 32 µg/mL
- MIC 0% CO2 (Cryptococcus neoformans [6]; strain A7-35-23, 0% CO2): > 39.25 µg/mL
- MIC 5% CO2 (Cryptococcus neoformans [6]; strain A7-35-23, 5% CO2): 2.45 µg/mL (≈ 6.24 µM)
- MIC 0% CO2 (Cryptococcus neoformans [6]; strain C23, 0% CO2): > 39.25 µg/mL
- MIC 5% CO2 (Cryptococcus neoformans [6]; strain C23, 5% CO2): 2.45 µg/mL (≈ 6.24 µM)
- MIC 0% CO2 (Cryptococcus neoformans [6]; strain JEC21, 0% CO2): > 39.25 µg/mL
- MIC 5% CO2 (Cryptococcus neoformans [6]; strain JEC21, 5% CO2): 2.45 µg/mL (≈ 6.24 µM)
- MIC ([7]; read-out: MBX-7591 MIC vs A. fumigatus (+) FLC): 0.4 µM
- MIC ([7]; read-out: MBX-7591 MIC vs A. fumigatus (−) FLC): 1.2 µM
- MIC ([7]; read-out: MIC (+Flu)): 5 µM
- MIC ([7]; read-out: MIC (-Fluc)): 20 µM
- Fold MIC ([7]; MIC-FLC/MIC+FLC, Table S2): 4
- Ratio (MIC −FLC / MIC +FLC) ([7]; Table 1): 3
- MIC (Aspergillus terreus): > 32 µg/mL
- MIC (Candida auris; Clade I, Clade III): > 39.2 µg/mL
- MIC (Candida auris; NIH: DI17-47, DI17-48, DI17-46, read-out: MIC UTHSC): > 32 µg/mL
- MIC (Rhizopus delemar): 0.31 µg/mL (≈ 0.79 µM)
- MIC (Rhizopus delemar; read-out: MIC UTHSC): ~0.25 µg/mL (≈ 0.637 µM)
- MIC UTHSC (Rhizopus delemar): 0.25 µg/mL (≈ 0.637 µM)
- MIC (Coccidioides spp.; read-out: MIC UTHSC, strain DI14-269): > 32 µg/mL
- MIC (Coccidioides spp.; read-out: MIC UTHSC, strain DI14-284): 8 µg/mL (≈ 20.4 µM)
- MIC (Coccidioides spp.; read-out: MIC UTHSC, strain DI17-143): > 32 µg/mL
- solubility [8]: 50 µM (≈ 19.6 µg/mL)
- MIC (Apophysomyces spp.; strain Apo1): 0.5 µg/mL (≈ 1.27 µM)
- MIC (Apophysomyces spp.; strain Apo2): 16 µg/mL (≈ 40.8 µM)
- MIC (Apophysomyces spp.; strain Apo3): 4 µg/mL (≈ 10.2 µM)
- MIC (Aspergillus nidulans): > 39.2 µg/mL
- MIC (Aspergillus flavus; ATCC204304, strain ATCC 204304): > 32 µg/mL
- MIC (Aspergillus flavus; strain Aflav1): > 32 µg/mL
- MIC UTHSC (Aspergillus flavus; strain Aflav2): > 32 µg/mL
